In patent publication US8637499B2, “Benzoxazepines as inhibitors of PI3K/mTOR and methods of their use and manufacture” (Exelixis, Inc., priority 2009, dated 2014):
Where two headings read alike, the source gives them in different places.

Columns and labels:
[1] = target: PI3Kα (Homo sapiens, UniProt P42336); test: PI3K Biochemical Assays (ATP consumption, luciferase-luciferin chemiluminescence); details: PI3Kα 1.5 nM, ATP 1 μM, PIP2 10 μM; percent of ATP consumed
Outline: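 Enzyme (1.5 nM), PIP2 substrate (10 μM) and ATP (1 μM) react about 2 h at room temperature in Tris buffer pH 7.5 with MgCl2, EGTA, DTT and CHAPS. Remaining ATP detected by Kinase-Glo luminescence; total consumption limited to 40-60%.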

[2] = target: mTORC1 (mTOR/GbL/Raptor) (Homo sapiens, UniProt P42345); test: mTOR/GbL/Raptor (mTORC1) ELISA Assay; type: biochemical; details: 0.2 nM mTORC1, 10 μM ATP, 50 nM NHis-tagged 4E-BP1, phosphorylation of 4E-BP1
Outline: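 Detection used Ni-chelate capture of His-tagged 4E-BP1, then anti-phospho-4E-BP1 and HRP anti-IgG with luminescent ELISA substrate. Reactions ran 120 min at ambient temperature with 0.2 nM mTORC1, 10 μM ATP, 50 nM 4E-BP1, 10 mM MnCl2, pH 7.2 Hepes.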

Chain of PI3Kα (P42336 whole entry): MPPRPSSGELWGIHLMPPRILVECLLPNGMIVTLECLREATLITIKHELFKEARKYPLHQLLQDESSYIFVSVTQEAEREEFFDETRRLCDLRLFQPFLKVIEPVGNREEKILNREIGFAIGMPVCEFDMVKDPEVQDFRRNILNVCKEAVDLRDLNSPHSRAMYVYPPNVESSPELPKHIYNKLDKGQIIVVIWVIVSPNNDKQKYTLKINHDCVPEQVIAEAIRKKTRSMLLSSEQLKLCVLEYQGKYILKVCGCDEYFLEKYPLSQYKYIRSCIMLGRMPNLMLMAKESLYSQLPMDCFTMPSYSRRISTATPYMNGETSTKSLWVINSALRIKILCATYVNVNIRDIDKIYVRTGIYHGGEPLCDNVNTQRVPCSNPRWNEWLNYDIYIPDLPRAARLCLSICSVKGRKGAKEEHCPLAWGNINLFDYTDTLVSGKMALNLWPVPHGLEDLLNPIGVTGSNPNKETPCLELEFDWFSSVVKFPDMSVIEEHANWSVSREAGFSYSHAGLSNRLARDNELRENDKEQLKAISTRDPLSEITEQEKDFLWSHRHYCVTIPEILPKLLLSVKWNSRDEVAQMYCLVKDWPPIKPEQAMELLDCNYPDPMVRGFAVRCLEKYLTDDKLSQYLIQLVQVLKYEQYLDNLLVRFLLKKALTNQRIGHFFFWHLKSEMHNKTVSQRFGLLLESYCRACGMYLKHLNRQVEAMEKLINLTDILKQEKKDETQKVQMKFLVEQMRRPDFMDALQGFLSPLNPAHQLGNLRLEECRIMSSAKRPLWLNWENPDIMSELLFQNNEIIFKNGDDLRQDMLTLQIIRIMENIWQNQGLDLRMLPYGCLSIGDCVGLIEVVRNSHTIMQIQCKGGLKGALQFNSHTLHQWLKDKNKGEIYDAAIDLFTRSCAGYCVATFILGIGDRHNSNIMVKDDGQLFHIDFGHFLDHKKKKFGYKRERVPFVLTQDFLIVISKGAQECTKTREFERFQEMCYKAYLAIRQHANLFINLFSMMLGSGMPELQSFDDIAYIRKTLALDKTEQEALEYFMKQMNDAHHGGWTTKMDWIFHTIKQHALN
Chain of PI3Kα (P27986 whole entry partner): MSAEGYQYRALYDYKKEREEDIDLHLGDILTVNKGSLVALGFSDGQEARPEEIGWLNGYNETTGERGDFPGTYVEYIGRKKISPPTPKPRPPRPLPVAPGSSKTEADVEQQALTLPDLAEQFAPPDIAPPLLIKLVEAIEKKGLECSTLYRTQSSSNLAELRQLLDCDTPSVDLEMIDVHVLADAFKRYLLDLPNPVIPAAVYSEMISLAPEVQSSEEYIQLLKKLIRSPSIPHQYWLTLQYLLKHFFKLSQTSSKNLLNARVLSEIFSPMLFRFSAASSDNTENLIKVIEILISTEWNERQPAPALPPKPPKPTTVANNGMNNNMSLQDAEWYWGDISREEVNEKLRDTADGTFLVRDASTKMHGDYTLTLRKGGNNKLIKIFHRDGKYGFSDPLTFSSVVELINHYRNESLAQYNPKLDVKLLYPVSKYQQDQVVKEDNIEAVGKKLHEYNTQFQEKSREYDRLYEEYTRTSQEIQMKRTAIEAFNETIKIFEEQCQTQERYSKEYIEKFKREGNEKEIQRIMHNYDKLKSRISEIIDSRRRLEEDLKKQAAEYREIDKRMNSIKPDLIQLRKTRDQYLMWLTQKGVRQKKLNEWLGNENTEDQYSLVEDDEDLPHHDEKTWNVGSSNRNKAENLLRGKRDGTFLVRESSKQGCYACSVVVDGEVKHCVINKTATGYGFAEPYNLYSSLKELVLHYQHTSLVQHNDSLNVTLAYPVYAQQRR

Row | SMILES | IC50 [1] | IC50 ([2]; read-out: IC50) | IC50 [2]
1 | Cc1nc2ccc(-c3ccc4c(c3)CN(C(=O)N3CCCCC3c3ccc(F)c(Cl)c3)CCO4)cc2[nH]1 (stereo not drawn) [Compound 128, 4-{[2-(3-chloro-4-fluorophenyl)piperidin-1-yl]carbonyl}-7-(2-methyl-1H-benzimidazol-6-yl)-2,3,4,5-tetrahydro-1,4-benzoxazepine] | 75 to 200 nM | ≤ 50 nM | 
2 | Cc1nc2ccc(-c3ccc4c(c3)CN(C(=O)N3CCCCC3c3cc(F)c(F)c(F)c3)CCO4)cc2[nH]1 (stereo not drawn) [Compound 129, 7-(2-methyl-1H-benzimidazol-6-yl)-4-{[2-(3,4,5-trifluorophenyl)piperidin-1-yl]carbonyl}-2,3,4,5-tetrahydro-1,4-benzoxazepine] | 75 to 200 nM | ≤ 50 nM | 
3 | Cc1nc2ccc(-c3ccc4c(c3)CN(C(=O)N3CCCCC3c3cc(F)cc(F)c3)CCO4)cc2[nH]1 (stereo not drawn) [Compound 130, 4-{[2-(3,5-difluorophenyl)piperidin-1-yl]carbonyl}-7-(2-methyl-1H-benzimidazol-6-yl)-2,3,4,5-tetrahydro-1,4-benzoxazepine] | ≤ 75 nM | ≤ 50 nM | 
4 | Cc1nc2ccc(-c3ccc4c(c3)CN(C(=O)N3CCCCC3c3ccc(N(C)C)cc3)CCO4)cc2[nH]1 (stereo not drawn) [Compound 131, N,N-dimethyl-4-(1-{[7-(2-methyl-1H-benzimidazol-6-yl)-2,3-dihydro-1,4-benzoxazepin-4(5H)-yl]carbonyl}piperidin-2-yl)aniline] | 1000 to 3000 nM | 700 to 2600 nM | 
5 | Cc1nc2ccc(-c3ccc4c(c3)CN(C(=O)N3CCC(C)(C(N)=O)CC3)CCO4)cc2[nH]1 [Compound 135, 4-methyl-1-{[7-(2-methyl-1H-benzimidazol-6-yl)-2,3-dihydro-1,4-benzoxazepin-4(5H)-yl]carbonyl}piperidine-4-carboxamide] | 1000 to 3000 nM | 50 to 250 nM | 
6 | Cc1nc2ccc(-c3ccc4c(c3)CN(C(=O)N3CCC(=C(F)F)CC3)CCO4)cc2[nH]1 [Compound 137, 4-{[4-(difluoromethylidene)piperidin-1-yl]carbonyl}-7-(2-methyl-1H-benzimidazol-6-yl)-2,3,4,5-tetrahydro-1,4-benzoxazepine] | 200 to 500 nM | 250 to 700 nM | 
7 | Cc1nc2ccc(-c3ccc4c(c3)CN(C(=O)N3CCC(F)(F)CC3c3ccccc3)CCO4)cc2[nH]1 (stereo not drawn) [Compound 138, 4-[(4,4-difluoro-2-phenylpiperidin-1-yl)carbonyl]-7-(2-methyl-1H-benzimidazol-6-yl)-2,3,4,5-tetrahydro-1,4-benzoxazepine] | 500 to 1000 nM | 50 to 250 nM | 
8 | Cc1nc2ccc(-c3ccc4c(c3)CN(C(=O)N3CCC(C(C)(C)O)CC3)CCO4)cc2[nH]1 [Compound 139, 2-(1-{[7-(2-methyl-1H-benzimidazol-6-yl)-2,3-dihydro-1,4-benzoxazepin-4(5H)-yl]carbonyl}piperidin-4-yl)propan-2-ol] | 1000 to 3000 nM | 50 to 250 nM | 
9 | Cc1nc2ccc(-c3ccc4c(c3)CN(C(=O)N3CCC(O)(c5ccc(F)cc5)CC3)CCO4)cc2[nH]1 [Compound 142, 4-(4-fluorophenyl)-1-{[7-(2-methyl-1H-benzimidazol-6-yl)-2,3-dihydro-1,4-benzoxazepin-4(5H)-yl]carbonyl}piperidin-4-ol] | 200 to 500 nM | ≤ 50 nM | 
10 | Cc1nc2ccc(-c3ccc4c(c3)CN(C(=O)N3C5CCC3c3ccccc35)CCO4)cc2[nH]1 [Compound 143, 9-{[7-(2-methyl-1H-benzimidazol-6-yl)-2,3-dihydro-1,4-benzoxazepin-4(5H)-yl]carbonyl}-1,2,3,4-tetrahydro-1,4-epiminonaphthalene] | 200 to 500 nM | 50 to 250 nM | 
11 | Cc1nc2ccc(-c3ccc4c(c3)CN(C(=O)N3CCN(c5ccccc5)CC3c3ccccc3)CCO4)cc2[nH]1 (stereo not drawn) [Compound 145, 4-[(2,4-diphenylpiperazin-1-yl)carbonyl]-7-(2-methyl-1H-benzimidazol-6-yl)-2,3,4,5-tetrahydro-1,4-benzoxazepine] | 1000 to 3000 nM | 250 to 700 nM | 
12 | Cc1nc2ccc(-c3ccc4c(c3)CN(C(=O)N3CCN(c5ccc(C(F)(F)F)cn5)CC3)CCO4)cc2[nH]1 [Compound 150, 7-(2-methyl-1H-benzimidazol-6-yl)-4-({4-[5-(trifluoromethyl)pyridin-2-yl]piperazin-1-yl}carbonyl)-2,3,4,5-tetrahydro-1,4-benzoxazepine] | 500 to 1000 nM |  | not active
13 | Cc1cccc(CN(C)C(=O)N2CCOc3ccc(-c4ccc5nc(C)[nH]c5c4)cc3C2)c1 [Compound 153, N-methyl-7-(2-methyl-1H-benzimidazol-6-yl)-N-[(3-methylphenyl)methyl]-2,3-dihydro-1,4-benzoxazepine-4(5H)-carboxamide] | 1000 to 3000 nM | 250 to 700 nM | 
14 | Cc1ccc(OCC2CN(C(=O)N3CCOc4ccc(-c5ccc6nc(C)[nH]c6c5)cc4C3)CCO2)cc1 (stereo not drawn) [Compound 154, 7-(2-methyl-1H-benzimidazol-6-yl)-4-[(2-{[(4-methylphenyl)oxy]methyl}morpholin-4-yl)carbonyl]-2,3,4,5-tetrahydro-1,4-benzoxazepine] | 1000 to 3000 nM | 700 to 2600 nM | 
15 | Cc1nc2ccc(-c3ccc4c(c3)CN(C(=O)N3CCC5CCCCC5C3)CCO4)cc2[nH]1 (stereo not drawn) [Compound 156, 7-(2-methyl-1H-benzimidazol-6-yl)-4-(octahydroisoquinolin-2(1H)-ylcarbonyl)-2,3,4,5-tetrahydro-1,4-benzoxazepine] | 200 to 500 nM | 50 to 250 nM | 
16 | Cc1nc2ccc(-c3ccc4c(c3)CN(C(=O)N3CC=C(c5ccccc5)CC3)CCO4)cc2[nH]1 [Compound 157, 7-(2-methyl-1H-benzimidazol-6-yl)-4-[(4-phenyl-3,6-dihydropyridin-1(2H)-yl)carbonyl]-2,3,4,5-tetrahydro-1,4-benzoxazepine] | 200 to 500 nM | 50 to 250 nM | 
17 | Cc1nc2ccc(-c3ccc4c(c3)CN(C(=O)N3CCN(c5cnccn5)CC3)CCO4)cc2[nH]1 [Compound 161, 7-(2-methyl-1H-benzimidazol-6-yl)-4-[(4-pyrazin-2-ylpiperazin-1-yl)carbonyl]-2,3,4,5-tetrahydro-1,4-benzoxazepine] | 200 to 500 nM | 250 to 700 nM | 
18 | Cc1nc2ccc(-c3ccc4c(c3)CN(C(=O)N3CCC(c5noc(C)n5)CC3)CCO4)cc2[nH]1 [Compound 162, 7-(2-methyl-1H-benzimidazol-6-yl)-4-{[4-(5-methyl-1,2,4-oxadiazol-3-yl)piperidin-1-yl]carbonyl}-2,3,4,5-tetrahydro-1,4-benzoxazepine] | 1000 to 3000 nM | 250 to 700 nM | 
19 | Cc1nc2ccc(-c3ccc4c(c3)CN(C(=O)N3CCC(c5noc(C6CC6)n5)CC3)CCO4)cc2[nH]1 [Compound 163, 4-{[4-(5-cyclopropyl-1,2,4-oxadiazol-3-yl)piperidin-1-yl]carbonyl}-7-(2-methyl-1H-benzimidazol-6-yl)-2,3,4,5-tetrahydro-1,4-benzoxazepine] | 1000 to 3000 nM | 250 to 700 nM | 
20 | Cc1nc2ccc(-c3ccc4c(c3)CN(C(=O)N3CCN(c5ncccn5)CC3)CCO4)cc2[nH]1 [Compound 166, 7-(2-methyl-1H-benzimidazol-6-yl)-4-[(4-pyrimidin-2-ylpiperazin-1-yl)carbonyl]-2,3,4,5-tetrahydro-1,4-benzoxazepine] | 200 to 500 nM | 700 to 2600 nM | 
21 | Cc1nc2ccc(-c3ccc4c(c3)CN(C(=O)N3CCCCCCC3)CCO4)cc2[nH]1 [Compound 167, 4-(azocan-1-ylcarbonyl)-7-(2-methyl-1H-benzimidazol-6-yl)-2,3,4,5-tetrahydro-1,4-benzoxazepine] | 1000 to 3000 nM | 700 to 2600 nM | 
22 | Cc1nc2ccc(-c3ccc4c(c3)CN(C(=O)N3CCC(c5ccccc5)CC3)CCO4)cc2[nH]1 [Compound 170, 7-(2-methyl-1H-benzimidazol-6-yl)-4-[(4-phenylpiperidin-1-yl)carbonyl]-2,3,4,5-tetrahydro-1,4-benzoxazepine] | 1000 to 3000 nM | 50 to 250 nM | 
23 | Cc1nc2ccc(-c3ccc4c(c3)CN(C(=O)N3CCN(c5ccccn5)CC3)CCO4)cc2[nH]1 [Compound 172, 7-(2-methyl-1H-benzimidazol-6-yl)-4-[(4-pyridin-2-ylpiperazin-1-yl)carbonyl]-2,3,4,5-tetrahydro-1,4-benzoxazepine] | 200 to 500 nM | 700 to 2600 nM | 
24 | Cc1nc2ccc(-c3ccc4c(c3)CN(C(=O)N3CCN(c5ccccc5)CC3)CCO4)cc2[nH]1 [Compound 174, 7-(2-methyl-1H-benzimidazol-6-yl)-4-[(4-phenylpiperazin-1-yl)carbonyl]-2,3,4,5-tetrahydro-1,4-benzoxazepine] | 500 to 1000 nM | 250 to 700 nM | 
25 | Cc1nc2ccc(-c3ccc4c(c3)CN(C(=O)N3CCN(c5ccc(F)cc5)CC3)CCO4)cc2[nH]1 [Compound 175, 4-{[4-(4-fluorophenyl)piperazin-1-yl]carbonyl}-7-(2-methyl-1H-benzimidazol-6-yl)-2,3,4,5-tetrahydro-1,4-benzoxazepine] | 1000 to 3000 nM | 700 to 2600 nM | 
26 | Cc1nc2ccc(-c3ccc4c(c3)CN(C(=O)N3CCN(c5cccc(Cl)c5)CC3)CCO4)cc2[nH]1 [Compound 176, 4-{[4-(3-chlorophenyl)piperazin-1-yl]carbonyl}-7-(2-methyl-1H-benzimidazol-6-yl)-2,3,4,5-tetrahydro-1,4-benzoxazepine] | 1000 to 3000 nM | 50 to 250 nM | 
27 | CCN(Cc1ccccc1)C(=O)N1CCOc2ccc(-c3ccc4nc(C)[nH]c4c3)cc2C1 [Compound 177, N-ethyl-7-(2-methyl-1H-benzimidazol-6-yl)-N-(phenylmethyl)-2,3-dihydro-1,4-benzoxazepine-4(5H)-carboxamide] | 200 to 500 nM | 50 to 250 nM | 
